Laboratory results reported in patent US4472409A, “2-Pyridylmethyl thio(sulfinyl)benzimidazoles with gastric acid secretion inhibiting effects” (Byk Gulden Lomberg Chemische Fabrik Gesellschaft mit …, priority 1981, dated 1984).

Key:
[1] = test system: gastric ulcers provoked by a pylorus ligature (Shay rat); test: Protective action on the stomach: antiulcerogenic test in the Shay rat (pylorus ligature + oral 100 mg/kg acetylsalicylic acid), reduction of ulcer index; type: in vivo; conditions: for Protective action on the stomach (rat), reduction in the ulcer index: 1 hour before pylorus ligature; for Protective action on the stomach (rat), ED25 / ED25: dose reducing ulcer index by 25% vs control; for Protective action on the stomach (rat), ED25 / Protective action on the stomach (rat), ED50 / ED25 / ED50: logarithmic interpolation; for Protective action on the stomach (rat), ED50 / ED50: dose reducing ulcer index by 50% vs control; for ED25 / ED50: Rattus norvegicus, po
Experimental: The effect of the compounds according to the invention on the formation of gastric ulcers provoked by a pylorus ligature (4 hours, so-called Shay rat) and oral administration of 100 mg/kg acetylsalicylic acid and on the inhibition of gastric secretion in rats during 4 hours is shown in the following table:
(§1) The antiulcerogenic action was tested in accordance with the method using the so-called Shay rat: Rats (female, 180 to 200 g, 4 animals per cage on a high grid) which had been fasted for 24 hours were subjected to ulcer provocation by pylorus ligature (under diethyl ether anaesthesia) and oral administration of 100 mg/10 ml/kg of acetylsalicyclic acid. The substances to be tested are administered orally (10 ml/kg) 1 hour before the pylorus ligature. The wound is closed by means of Michel clamps. 4 hours thereafter, the animals are killed under ether anaesthesia by atlas dislocation, and the stomach is removed. The stomach is opened longitudinally and fixed to a cork tile after the amount of gastric juice secreted [volume, and its hydrochloric acid content (titration with sodium hydroxide solution)] has been determined, the number and size (=diameter) of ulcers present are determined with a stereomicroscope with 10-fold magnification. The product of the degree of severity (according to the following rating scale) and the number of ulcers serves as the individual ulcer index.
The reduction in the average ulcer index of each treated group compared with that of the control group (=100%) serves as a measure of the antiulcerogenic effect. The ED25 and the ED50 designate the doses which reduce the average ulcer index and the gastric secretion by 25 and 50%.

[2] = test system: gastric secretion (HCl-secretion of the rat stomach); test: Gastric secretion inhibition (HCl-secretion over 4 hours) in the Shay rat; type: in vivo; conditions: for Gastric secretion (rat), inhibition in % of HCl-secretion: 4 hours; for Gastric secretion (rat), ED25 / ED25: dose reducing HCl secretion (sum 4 hours) by 25% vs control; for ED25 / ED50: Rattus norvegicus, po
Experimental: as §1, with “index. The reduction in the average ulcer index of each treated group compared with that of the control group (=100%) serves as a measure of the antiulcerogenic effect. The ED25 and the ED50 designate the doses which reduce the average ulcer index and the gastric secretion by 25 and 50%.” for “index.”

[3] = dose reducing HCl secretion (sum 4 hours) by 50% vs control, logarithmic interpolation

Row | Molecule | Protective action on the stomach (rat), reduction in the ulcer index ([1]; dose 0.1 mg/kg p.o.) | Protective action on the stomach (rat), reduction in the ulcer index ([1]; dose 0.3 mg/kg p.o.) [%] | Protective action on the stomach (rat), reduction in the ulcer index ([1]; dose 1.0 mg/kg p.o.) [%] | Protective action on the stomach (rat), reduction in the ulcer index ([1]; dose 3.0 mg/kg p.o.) [%] | Protective action on the stomach (rat), ED25 [1] | Protective action on the stomach (rat), ED50 [1] | Gastric secretion (rat), inhibition in % of HCl-secretion ([2]; dose 0.1 mg/kg p.o.) | Gastric secretion (rat), inhibition in % of HCl-secretion ([2]; dose 0.3 mg/kg p.o.) [%] | Gastric secretion (rat), inhibition in % of HCl-secretion ([2]; dose 1.0 mg/kg p.o.) [%] | Gastric secretion (rat), inhibition in % of HCl-secretion ([2]; dose 3.0 mg/kg p.o.) [%] | Gastric secretion (rat), ED25 ([2]; logarithmic interpolation) | Gastric secretion (rat), ED50 [2, 3] | ED25 [1] [mg/kg] | ED50 [1] [mg/kg] | ED25 ([2]; logarithmic interpolation) [mg/kg] | ED50 [2, 3] [mg/kg] | Protective action on the stomach (rat), reduction in the ulcer index ([1]; dose 10.0 mg/kg p.o.) [%] | Gastric secretion (rat), inhibition in % of HCl-secretion ([2]; dose 10.0 mg/kg p.o.) [%]
1 | 4-Trifluoromethyl-2-[(4-methoxy-2-pyridylmethyl)sulfinyl]-(1H)-benzimidazole [Example 1] | +1% | 12 | 27 | 58 | 0.9 mg/kg, p.o. | 2.3 mg/kg, p.o. | 5% | 9 | 15 | 22 | ≥ 3.0 mg/kg, p.o. |  |  |  |  |  |  | 
2 | 5-Trifluoromethyl-2-[(4-methoxy-3,5-dimethyl-2-pyridylmethyl)thio]-(1H)-benzimidazole [Example 8] |  |  | 50 | 63 | < 1.0 mg/kg, p.o. | 1.0 mg/kg, p.o. |  |  | 12 | 50 | 1.5 mg/kg, p.o. | 3.0 mg/kg, p.o. |  |  |  |  |  | 
3 | COc1ccnc(C[S+]([O-])c2nc3cc(C(F)(F)F)ccc3[nH]2)c1 (stereo not drawn) [Serial No. 2, 5-Trifluoromethyl-2-[(4-methoxy-2-pyridylmethyl)sulfinyl]-(1H)-benzimidazole] | 6% | 29 | 88 | 100 |  |  | 0% | 18 | 60 | 84 |  |  | 0.24 | 0.45 | 0.35 | 0.75 |  | 
4 | COc1ccnc(C[S+]([O-])c2nc3cc(C(F)(F)F)ccc3[nH]2)c1C (stereo not drawn) [Serial No. 3, 5-Trifluoromethyl-2-[(4-methoxy-3-methyl-2-pyridylmethyl)sulfinyl]-(1H)--benzimidazole] |  | 25 | 98 |  |  |  |  | 40 | 88 |  |  |  | 0.3 | 0.45 | < 0.3 | 0.4 | 100 | 92
5 | COc1c(C)cnc(C[S+]([O-])c2nc3cc(C(F)(F)F)ccc3[nH]2)c1C (stereo not drawn) [Serial No. 4, 5-Trifluoromethyl-2-[(4-methoxy-3,5-dimethyl-2-pyridylmethyl)sulfinyl]-(1H)-benzimidazole] | 1% | 30 | 69 | 89 |  |  | +5% | 10 | 50 | 75 |  |  | 0.24 | 0.55 | 0.48 | 1 |  | 
6 | COc1ccnc(CSc2nc3cc(C(F)(F)F)ccc3[nH]2)c1 [Serial No. 6, 5-Trifluoromethyl-2-[(4-methoxy-2-pyridylmethyl)thio]-(1H)-benzimidazole] |  |  | 27 | 97 |  |  |  |  | 15 | 70 |  |  | ~1 | 1.4 | 1.2 | 2 |  | 
7 | COc1ccnc(CSc2nc3cc(C(F)(F)F)ccc3[nH]2)c1C [Serial No. 7, 5-Trifluoromethyl-2-[(4-methoxy-3-methyl-2-pyridylmethyl)thio]-(1H)-benzimidazole] |  | 30 | 94 |  |  |  |  | 26 | 85 |  |  |  | ≤ 0.3 | 0.5 | 0.3 | 0.5 |  | 
